Data as given in patent publication US20200093789A1, “Cancer Treatment with a CXCL12 Signaling Inhibitor and an Immune Checkpoint Inhibitor” (The General Hospital Corporation, priority 2017, published 2020).
Entries after “also recorded” stand apart in the source; their conditions may differ.

What was measured:
[1] = system: intratumoral FoxP3+ regulatory T cells (Treg); conditions: literature statement; cited from earlier work
[2] = system: ID8 tumor bearing mice; assay: Survival of ID8 tumor bearing mice (AMD3100/checkpoint inhibitor combination study); format: in vivo, C57BL/6 mice; conditions: vs saline treated control; AMD3100 3 mg/kg IP every other day for three weeks alternating with αPD-1 or αPD-L1 200 μg/mouse IP; Log-rank test
Experimental: Luciferase-expressing ID-8 ovarian cancer cells (3×10^6 cells) were injected into C57BL/6 female mice (30/group). […] Starting three weeks post tumor inoculation, AMD3100 (3 mg/kg) was injected IP every other day for three weeks alternating with αPD-1 or αPD-L1 (200 μg/mouse) by IP injection.
Tissue Culture: The ID8 ovarian cancer cells, a kind gift from Kathy Roby (University of Kansas Medical Center, Kansas City, Kans.), were transfected with luciferase lentiviral vector and a clone stably expressing luciferase was recovered, here named Luc-ID8. Cells were maintained at 37° C. in DMEM with 2 mmol/L L-glutamine, 10 units/ml penicillin, 10 μg/ml streptomycin, and 10% fetal bovine serum in a humidified atmosphere with 5% CO2. Cells were cultured until 80% confluent, then harvested with Trypsin EDTA (Mediatech) for animal injections.
Treatment Agents: AMD3100 was purchased from Abcam. 10 mg power was dissolved in 16.7 ml saline to achieve concentration of 0.6 mg/ml and 100 μl was injected for each treatment. Anti-mouse PD-1 and anti-mouse PD-L1 were purchased from Biocell. […]

[3] = system: tumor-infiltrated lymphocytes; assay: Flow cytometry immune profiling of tumor-infiltrating lymphocytes from ID8 tumors a week after the last treatment; format: in vivo, C57BL/6 mice; conditions: vs saline control
Experimental: Luciferase-expressing ID-8 ovarian cancer cells (3×10^6 cells) were injected into C57BL/6 female mice (30/group). Tumor initiation was confirmed 20 days later by IVIS imaging, and tumor-bearing animals were randomized into the treatment groups indicated in Table 2. Starting three weeks post tumor inoculation, AMD3100 (3 mg/kg) was injected IP every other day for three weeks alternating with αPD-1 or αPD-L1 (200 μg/mouse) by IP injection. 3 mg/kg AMD3100 is the murine equivalent of the approved human dose of 0.24 mg/kg based on allometric scaling.
Some animals from each treatment group were euthanized by i.p. administration of Ketamine (9 mg/ml in saline) and Xylazine (0.9 mg/ml in saline) a week after the last treatment for evaluation of tumor-infiltrating lymphocytes. Tumors were harvested and processed for immune profiling.
Flow cytometry: Tumors were mechanically disaggregated using razor blades, and cells were further separated by incubation at 37° C. for 2 hours in RPMI 1640 with collagenase type IV (2 mg/ml, Sigma), hyaluronidase (0.1 mg/ml, Sigma), and BSA (2 mg/ml, Sigma). Cell suspensions were passed through 100 μm filters to remove any remaining aggregates. Cells were washed with staining buffer (Biolegend) and stained with conjugated antibodies. All live cells were determined by the LIVE/DEAD® staining (ThermoFisher). Intracellular protein detection was realized by fixation/permeabilization reagents from BioLegend or eBioscience. Flow cytometry were performed using BD LSRFortessa X-20 (BD Biosciences) and data were analyzed by FlowJo V10.
Assessment of Results: Prism 6.0 software (GraphPad Software) was used for all statistical analyses. Statistical differences between three or more experimental groups were analyzed using Two-Way ANOVA, followed by Tukey's multiple comparison tests or Student T tests. Survival was analyzed with the Log-rank test.

[4] = percentage of total CD8+ T cells in tumors

c1cc(CN2CCCNCCNCCCNCC2)ccc1CN1CCCNCCNCCCNCC1 [AMD3100, AMD3100 (plerixafor)]
levels of intratumoral FoxP3+ regulatory T cells (Treg) [1]: can be reduced
survival time of ID8 tumor bearing mice [2]: significantly extended
proportions of CD40L+IL-2+ cells in CD4+FoxP3+CD25− population (helper-like T cells) ([3]; in tumors): significantly increased; also recorded: promoted replacement of Tregs by helper T cells
proportions of intratumor Tregs ([3]; percent of total CD4+ T cells in tumors): significantly reduced; also recorded: decreased
IFN-γ expression in intratumor CD8+ T cells [3, 4]: significantly increased; also recorded: enhanced
intratumor CD8+ memory T cells (CD27+CD44+ population in TILs) [3, 4]: significantly increased
